Measurements: the supplement of paper PMC10307832

How the values were obtained:
Experiment in all cases: relative viability (nuclei count vs DMSO), 5 days (fraction); higher = more cells survive
ChaGo-K-1 = tested on: ChaGo-K-1
Procedure, shortened: (§1)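 Each reported value is a median over duplicate plates. It expresses relative viability: treated-well nuclei count divided by vehicle-well nuclei count. Lung cancer cell lines in 1536-well plates were dosed by pin tool a day after seeding, alone with one drug or with a fixed anchor-drug dose plus five library-drug doses (not always all listed) in √10 steps, and nuclei were counted after 5 days.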

EKVX = tested on: EKVX
Procedure, shortened: as §1

IA-LM = tested on: IA-LM
Procedure, shortened: as §1

LC-2-ad = tested on: LC-2-ad
Procedure, shortened: as §1

NCI-H1648 = tested on: NCI-H1648
Procedure, shortened: as §1

NCI-H1666 = tested on: NCI-H1666
Procedure, shortened: as §1

NCI-H1623 = tested on: NCI-H1623
Procedure, shortened: as §1

A549 = tested on: A549
Procedure, shortened: as §1

## CN1CCN(CCOc2cc(OC3CCOCC3)c3c(Nc4c(Cl)ccc5c4OCO5)ncnc3c2)CC1 [Saracatinib] + O=C(CCCCCCC(=O)Nc1ccccc1)NO [Vorinostat] (partner 1 µM)
ChaGo-K-1; first compound 0.02 µM
  relative viability: 0.797
ChaGo-K-1; first compound 0.2 µM
  relative viability: 0.55
ChaGo-K-1; first compound 0.6325 µM
  relative viability: 0.785
ChaGo-K-1; first compound 2 µM
  relative viability: 0.65
EKVX; first compound 0.02 µM
  relative viability: 0.762
EKVX; first compound 0.2 µM
  relative viability: 0.474
EKVX; first compound 0.6325 µM
  relative viability: 0.817
EKVX; first compound 2 µM
  relative viability: 0.494
IA-LM; first compound 0.02 µM
  relative viability: 1.01
IA-LM; first compound 0.6325 µM
  relative viability: 1.4
IA-LM; first compound 2 µM
  relative viability: 0.798
LC-2-ad; first compound 0.02 µM
  relative viability: 0.757
LC-2-ad; first compound 0.2 µM
  relative viability: 0.668
LC-2-ad; first compound 0.6325 µM
  relative viability: 0.777
LC-2-ad; first compound 2 µM
  relative viability: 0.68
NCI-H1648; first compound 0.02 µM
  relative viability: 0.338
NCI-H1648; first compound 0.2 µM
  relative viability: 0.352
NCI-H1648; first compound 0.6325 µM
  relative viability: 0.782
NCI-H1648; first compound 2 µM
  relative viability: 0.433
NCI-H1666; first compound 0.02 µM
  relative viability: 0.988
NCI-H1666; first compound 0.2 µM
  relative viability: 0.914
NCI-H1666; first compound 0.6325 µM
  relative viability: 1.12
NCI-H1666; first compound 2 µM
  relative viability: 1.2

## Cc1cn(-c2cc(NC(=O)c3ccc(C)c(Nc4nccc(-c5cccnc5)n4)c3)cc(C(F)(F)F)c2)cn1 [Nilotinib] + CCNC(=O)c1noc(-c2cc(C(C)C)c(O)cc2O)c1-c1ccc(CN2CCOCC2)cc1 [Luminespib] (partner 0.01 µM)
ChaGo-K-1; first compound 0.001 µM
  relative viability: 0.416
ChaGo-K-1; first compound 0.003162 µM
  relative viability: 0.48
ChaGo-K-1; first compound 0.01 µM
  relative viability: 1.01
ChaGo-K-1; first compound 0.03162 µM
  relative viability: 0.531
ChaGo-K-1; first compound 0.1 µM
  relative viability: 0.666
EKVX; first compound 0.001 µM
  relative viability: 0.839
EKVX; first compound 0.003162 µM
  relative viability: 0.959
EKVX; first compound 0.01 µM
  relative viability: 1.09
EKVX; first compound 0.03162 µM
  relative viability: 0.88
EKVX; first compound 0.1 µM
  relative viability: 0.955
LC-2-ad; first compound 0.001 µM
  relative viability: 0.85
LC-2-ad; first compound 0.003162 µM
  relative viability: 1.15
LC-2-ad; first compound 0.01 µM
  relative viability: 1.21
LC-2-ad; first compound 0.03162 µM
  relative viability: 0.947
LC-2-ad; first compound 0.1 µM
  relative viability: 0.8
NCI-H1623; first compound 0.001 µM
  relative viability: 0.43
NCI-H1623; first compound 0.003162 µM
  relative viability: 0.516
NCI-H1623; first compound 0.01 µM
  relative viability: 0.63
NCI-H1623; first compound 0.03162 µM
  relative viability: 0.498
NCI-H1623; first compound 0.1 µM
  relative viability: 0.544
NCI-H1666; first compound 0.001 µM
  relative viability: 1.02
NCI-H1666; first compound 0.003162 µM
  relative viability: 1.01
NCI-H1666; first compound 0.01 µM
  relative viability: 1.1
NCI-H1666; first compound 0.03162 µM
  relative viability: 0.999
NCI-H1666; first compound 0.1 µM
  relative viability: 1.17

## CCNC(=O)c1noc(-c2cc(C(C)C)c(O)cc2O)c1-c1ccc(CN2CCOCC2)cc1 [Luminespib] + O=C(CCCCCCC(=O)Nc1ccccc1)NO [Vorinostat] (partner 1 µM)
ChaGo-K-1; first compound 0.002 µM
  relative viability: 0.678
ChaGo-K-1; first compound 0.006325 µM
  relative viability: 0.728
ChaGo-K-1; first compound 0.02 µM
  relative viability: 0.529
ChaGo-K-1; first compound 0.06325 µM
  relative viability: 0.523
ChaGo-K-1; first compound 0.2 µM
  relative viability: 0.23
EKVX; first compound 0.002 µM
  relative viability: 0.466
EKVX; first compound 0.006325 µM
  relative viability: 0.684
EKVX; first compound 0.02 µM
  relative viability: 0.47
EKVX; first compound 0.06325 µM
  relative viability: 0.669
EKVX; first compound 0.2 µM
  relative viability: 0.572
IA-LM; first compound 0.002 µM
  relative viability: 0.918
IA-LM; first compound 0.006325 µM
  relative viability: 0.934
IA-LM; first compound 0.02 µM
  relative viability: 0.64
IA-LM; first compound 0.06325 µM
  relative viability: 0.077
IA-LM; first compound 0.2 µM
  relative viability: 0.0416
LC-2-ad; first compound 0.002 µM
  relative viability: 0.647
LC-2-ad; first compound 0.006325 µM
  relative viability: 0.727
LC-2-ad; first compound 0.02 µM
  relative viability: 0.554
LC-2-ad; first compound 0.06325 µM
  relative viability: 0.465
LC-2-ad; first compound 0.2 µM
  relative viability: 0.179
NCI-H1648; first compound 0.002 µM
  relative viability: 0.299
NCI-H1648; first compound 0.006325 µM
  relative viability: 0.502
NCI-H1648; first compound 0.02 µM
  relative viability: 0.344
NCI-H1648; first compound 0.06325 µM
  relative viability: 0.566
NCI-H1648; first compound 0.2 µM
  relative viability: 0.348
NCI-H1666; first compound 0.002 µM
  relative viability: 0.983
NCI-H1666; first compound 0.006325 µM
  relative viability: 0.994
NCI-H1666; first compound 0.02 µM
  relative viability: 1.19
NCI-H1666; first compound 0.06325 µM
  relative viability: 1.03
NCI-H1666; first compound 0.2 µM
  relative viability: 0.909

## Cc1csc(=NC2CCCCC2)n1/N=C/c1ccc(O)c(O)c1O [MIM1] + Nc1ncn([C@H]2C[C@H](O)[C@@H](CO)O2)c(=O)n1 [Decitabine] (partner 2 µM)
A549; first compound 0.2 µM
  relative viability: 0.217
A549; first compound 0.6325 µM
  relative viability: 0.208
A549; first compound 2 µM
  relative viability: 0.353
A549; first compound 6.325 µM
  relative viability: 0.272
A549; first compound 20 µM
  relative viability: 0.0686
ChaGo-K-1; first compound 0.2 µM
  relative viability: 0.542
ChaGo-K-1; first compound 0.6325 µM
  relative viability: 0.527
ChaGo-K-1; first compound 2 µM
  relative viability: 0.544
ChaGo-K-1; first compound 6.325 µM
  relative viability: 0.459
ChaGo-K-1; first compound 20 µM
  relative viability: 0.18
EKVX; first compound 0.2 µM
  relative viability: 0.405
EKVX; first compound 0.6325 µM
  relative viability: 0.342
EKVX; first compound 2 µM
  relative viability: 0.331
EKVX; first compound 6.325 µM
  relative viability: 0.321
EKVX; first compound 20 µM
  relative viability: 0.341
LC-2-ad; first compound 0.2 µM
  relative viability: 0.777
LC-2-ad; first compound 0.6325 µM
  relative viability: 0.736
LC-2-ad; first compound 2 µM
  relative viability: 0.868
LC-2-ad; first compound 6.325 µM
  relative viability: 0.453
LC-2-ad; first compound 20 µM
  relative viability: 0.508
NCI-H1648; first compound 0.2 µM
  relative viability: 0.523
NCI-H1648; first compound 0.6325 µM
  relative viability: 0.376
NCI-H1648; first compound 2 µM
  relative viability: 0.486
NCI-H1648; first compound 6.325 µM
  relative viability: 0.382
NCI-H1648; first compound 20 µM
  relative viability: 0.35
NCI-H1666; first compound 0.2 µM
  relative viability: 0.714
NCI-H1666; first compound 0.6325 µM
  relative viability: 0.741
NCI-H1666; first compound 2 µM
  relative viability: 0.665
NCI-H1666; first compound 6.325 µM
  relative viability: 0.734
NCI-H1666; first compound 20 µM
  relative viability: 0.467
